What was measured:
HeLa [1] = assay: Cytotoxicity against human HeLa MKYP cells assessed as percentage of DAPI-positive cells at 50 uM and measured by DAPI staining method; format: toxicity, cell-based
[2] = Induction of mitophagy in human HeLa MKYP cells treated with FCCP/oligomycin for 6 hrs and measured by FACS analysis; format: functional, cell-based
HeLa [3] = assay: Cytotoxicity against human HeLa MKYP cells assessed as cell death at 25 uM treated with FCCP/oliogmycin and measured DAPI staining method assay relative to control; format: toxicity, cell-based
HeLa [4] = assay: Cytotoxicity against human HeLa MKYP cells assessed as cell death at 25 uM and measured DAPI staining method assay relative to control; format: toxicity, cell-based
[5] = Induction of mitophagy in human HeLa MKYP cells treated at 6.3 uM with FCCP/oligomycin for 6 hrs and measured by FACS analysis relative to control; format: functional

Structure (SMILES)	Activity (HeLa [1]) [%]	EC50 [2] [µM]	Activity (HeLa [3]) [%]	Activity (HeLa [4]) [%]	Activity [5] [%]	Activity ([5]; 6 h, 6.3 µM) [%]
FC(F)(F)c1cc2c(NCc3cccc(Cl)c3)ncnc2[nH]1	20.3					
CO[C@@H]1COc2ccccc2[C@H]1Nc1ncnc2[nH]c(C(F)(F)F)cc12	10.6	6.3	10.645	2.61		
C[C@@H](Nc1ncnc2[nH]c(C(F)(F)F)cc12)c1cncnc1	22.9	21.6				
CCCCNc1ncnc2[nH]c(C3CC3)nc12	16.2	18.8				
c1ccc2c(c1)OCC[C@@H]2Nc1ncnc2[nH]cnc12	17	1.69				
Fc1cc(Cl)cc(CNc2ncnc3[nH]c(C(F)(F)F)cc23)c1	4.8					
Clc1cccc(CNc2ncnc3nc[nH]c23)c1	12.5	16				
C[C@H](Nc1ncnc2[nH]c(C3CC3)nc12)c1ccccc1	27.6	3.17				
CCCCNc1ncnc2c1cc(C(F)(F)F)n2C(C)=O	36.6	> 50				
O[C@H]1Cc2ccccc2[C@H]1Nc1ncnc2[nH]c(C(F)(F)F)cc12	21.2	> 50	21.2	2.75		
c1ccc(C2(Nc3ncnc4[nH]cnc34)CC2)cc1	13.4	> 50				
Oc1ccc2c(c1)CCC[C@H]2Nc1ncnc2[nH]c(C(F)(F)F)cc12	11	4.38	11	3.32		
CC(Nc1ncnc2[nH]c(C3CC3)nc12)c1ccccc1 (stereo unspecified)	18.3	6.3				
COc1ccccc1CNc1ncnc2[nH]c(C(F)(F)F)cc12	24.7	2				
CO[C@H]1COc2ccccc2[C@H]1Nc1ncnc2[nH]c(C(F)(F)F)cc12	3.6	13.3	3.555	2.49		
FC(F)(F)c1cc2c(N[C@H]3COc4ccccc43)ncnc2[nH]1	22.8	1.4				
FC(F)(F)c1cc2c(NCc3ccccc3)ncnc2[nH]1	50.4				35.1	
OC[C@H]1CCc2ccccc2[C@@H]1Nc1ncnc2[nH]c(C(F)(F)F)cc12	30.9	5.5	30.87	9.83		
c1ncc(CNc2ncnc3[nH]cnc23)cn1	5.3	4.4				
CCCCNc1ncnc2[nH]c(C(OCC)C(F)(F)F)cc12 (stereo unspecified)	15.8				17.9	

Structure (SMILES)	Activity (HeLa [1]) [%]	EC50 [2] [µM]	Activity (HeLa [3]) [%]	Activity (HeLa [4]) [%]	Activity [5] [%]	Activity ([5]; 6 h, 6.3 µM) [%]
CCCCNc1ncnc2[nH]c(C(F)(F)F)c(C)c12	11.9	> 50				
FC(F)(F)c1cc2c(NC3CCc4ccccc43)ncnc2[nH]1 (stereo in doubt; 17)	2.3					14.8
Cc1nc2c(N[C@H](C)c3ccccc3)ncnc2[nH]1	9.7	> 50				
CN1CCC(Nc2ncnc3[nH]c(C(F)(F)F)cc23)c2ccccc21 (stereo unspecified)	28.1	1.81				
CC(=O)N1CCC(Nc2ncnc3[nH]c(C(F)(F)F)cc23)c2ccccc21 (stereo unspecified)	6.9	17.3	6.92	2.69		
C[C@H](Nc1ncnc2[nH]c(C(F)(F)F)cc12)c1cncnc1	23.7	3.1				
FC(F)(F)c1cc2c(NC3CCCc4ccccc43)ncnc2[nH]1 (stereo in doubt; 16)	4.5					10.1
CC(CNc1ncnc2[nH]cnc12)c1ccccc1 (stereo unspecified)	28.9	3.6				
C[C@H](Nc1ncnc2[nH]cnc12)c1ccccc1	11.7	2				
CN(C)C1CCC(CNc2ncnc3[nH]c(C(F)(F)F)cc23)CC1 (stereo unspecified)	5.2	> 50				
FC(F)(F)c1cc2c(NC3CCCc4ncncc43)ncnc2[nH]1 (stereo unspecified)	12	> 50				
c1ccc2c(c1)OCC2Nc1ncnc2[nH]cnc12 (stereo unspecified)	21	6.1				
FC(F)(F)c1cc2c(NCc3cnccn3)ncnc2[nH]1	0.9					
COc1ncc(CNc2ncnc3[nH]c(C(F)(F)F)cc23)cn1	5.8	10.6				
CO[C@H]1COc2ccccc2[C@@H]1Nc1ncnc2[nH]c(C(F)(F)F)cc12	15.9	4	15.865	3.66		
CC(Nc1ncnc2[nH]cnc12)c1ccccc1 (stereo unspecified)	18.2	2.69				
FC(F)(F)c1cc2c(N[C@H]3CCOc4ccccc43)ncnc2[nH]1	37.7	5.6				
CC(C)[C@@H](Nc1ncnc2[nH]c(C(F)(F)F)cc12)c1cncnc1	6.8	6.9				
c1coc(CNc2ncnc3[nH]c(C4CCC4)nc23)c1	3	> 50				
OC[C@@H](Nc1ncnc2[nH]c(C(F)(F)F)cc12)c1ccccc1	30.3	4.4				
